MIC data for 17 molecules are collected here from patent US7105547B2, “Antimicrobial 1-aryl dihydropyridone compounds” (Pharmacia and Upjohn Company, priority 2002, dated 2006).

Test [1] has as its system Staphylococcus aureus UC9213 (SAUR 9213). Nature of the test: MIC by agar dilution against Staphylococcus aureus UC9213. The format is cell-based. The following applies: read-out: SAUR 9213 MIC (Minimum Inhibitory Concentration). The text has this: (§1) Compounds of this invention have useful activity against a variety of organisms. The in vitro activity of compounds of this invention can be assessed by standard testing procedures such as the determination of minimum inhibitory concentration (MIC) by agar dilution as described in “Approved Standard. Methods for Dilution Antimicrobial Susceptibility Tests for Bacteria That Grow Aerobically”, 3rd. ed., published 1993 by the National Committee for Clinical Laboratory Standards, Villanova, Pa., USA.
(Agar dilution tests growth on a series of plates holding different concentrations.)

The test system of the next test is HINF 30063. Nature of the test: MIC by agar dilution against HINF 30063. It is filed as cell-based, H. influenzae. Particulars: Haemophilus influenzae, read-out: HINF 30063 MIC (Minimum Inhibitory Concentration).
Description: as §1

In a further test the test system is SPNE 9912. The test can be described thus: MIC by agar dilution against SPNE 9912. The format is cell-based. Particulars: Streptococcus pneumoniae, read-out: SPNE 9912 MIC (Minimum Inhibitory Concentration).
Description: as §1

Molecules are shown by their SMILES. Converted amounts (≈) assume the structure as drawn. Read-outs that look alike come from different tables or passages of the source.

As to `CC(=O)NC[C@H]1CN(c2cc(F)c(N3C=CC(=O)CC3)c(F)c2)C(=O)O1` [Example 2, N-{3-[3,5-diluoro-4-(4-oxo-3,4-dihydro-2H-pyridin-1-yl)-phenyl]-2-oxo-oxazolidin-5-ylmethyl}-acetamide], the MIC in test [1] came to 1 µg/mL (≈ 2.74 µM); in the test with HINF 30063 (HINF 30063, agar dilution), 8 µg/mL (≈ 21.9 µM); in the test on SPNE 9912 it was 0.5 µg/mL (≈ 1.37 µM).

Turning to `O=C1C=CN(c2ccc(N3C[C@H](Cn4ccnn4)OC3=O)cc2)CC1` [Example 17, 1-{4-[(5R)-2-oxo-5-(1H-1,2,3-triazol-1-ylmethyl)-1,3-oxazolidin-3-yl]phenyl}-2,3-dihydropyridin-4(1H)-one], the MIC worked out at 1 µg/mL (≈ 2.95 µM) in test [1]; 8 µg/mL (≈ 23.6 µM) with HINF 30063 (HINF 30063, agar dilution); 1 µg/mL (≈ 2.95 µM) in the test on SPNE 9912.

Turning to `O=C1C=CN(c2ccc(N3C[C@H](CNC(=S)C(F)F)OC3=O)cc2F)CC1` [Example 6, 2,2-difluoro-N-{3-[3-fluoro-4-(4-oxo-3,4-dihydro-2H-pyridin-1-yl)-phenyl]-2-oxo-oxazolidin-5-ylmethyl}-thioacetamide], the MIC was 1 µg/mL (≈ 2.5 µM) in test [1]; 4 µg/mL (≈ 10 µM) in the test on HINF 30063 (HINF 30063, agar dilution); 0.125 µg/mL (≈ 0.313 µM) with SPNE 9912.

Turning to `O=C1C=CN(c2c(F)cc(N3C[C@H](CNC(=O)C(Cl)Cl)OC3=O)cc2F)CC1` [Example 15, 2,2-dichloro-N-{3-[3,5-difluoro-4-(4-oxo-3,4-dihydro-2H-pyridin-1-yl)-phenyl]-2-oxo-oxazolidin-5-ylmethyl}-acetamide], the MIC is 2 µg/mL (≈ 4.61 µM) in test [1]; 4 µg/mL (≈ 9.21 µM) in the test on HINF 30063 (HINF 30063, agar dilution); 0.25 µg/mL (≈ 0.576 µM) in the test with SPNE 9912.

On to `O=C1C=CN(c2ccc(N3C[C@H](CNC(=O)C(Cl)Cl)OC3=O)cc2F)CC1` [Example 5, 2,2-dichloro-N-{3-[3-fluoro-4-(4-oxo-3,4-dihydro-2H-pyridin-1-yl)-phenyl]-2-oxo-oxazolidin-5-ylmethyl}-acetamide], for which the MIC turned out to be 1 µg/mL (≈ 2.4 µM) in test [1]; 1 µg/mL (≈ 2.4 µM) in the test with HINF 30063 (HINF 30063, agar dilution); 0.25 µg/mL (≈ 0.601 µM) in the test with SPNE 9912.

With `CC(=O)NC[C@H]1CN(c2ccc(N3C=CC(=O)CC3)c(F)c2)C(=O)O1` [Example 1, N-{3-[3-fluoro-4-(4-oxo-3,4-dihydro-2H-pyridin-1-yl)-phenyl]-2-oxo-oxazolidin-5-ylmethyl}-acetamide], the MIC was found to be 2 µg/mL (≈ 5.76 µM) in test [1]; 4 µg/mL (≈ 11.5 µM) in the test with HINF 30063 (HINF 30063, agar dilution); 0.25 µg/mL (≈ 0.72 µM) in the test on SPNE 9912.

For the molecule `O=C1C=CN(c2ccc(N3C[C@H](CNC(=O)C(F)F)OC3=O)cc2F)CC1` [Example 3, N-{3-[3-fluoro-4-(4-oxo-3,4-dihydro-2H-pyridin-1-yl)-phenyl]-2-oxo-oxazolidin-5-ylmethyl}-difluoroacetamide], the MIC in test [1] was found to be 1 µg/mL (≈ 2.61 µM); in the test with HINF 30063, 2 µg/mL (≈ 5.22 µM); in the test with SPNE 9912, 0.25 µg/mL (≈ 0.652 µM).

Take `CC(=O)NC[C@H]1CN(c2ccc(N3C=CC(=O)CC3)cc2)C(=O)O1` [Example 9, N-{2-oxo-3-[4-(4-oxo-3,4-dihydro-2H-pyridin-1-yl)-phenyl]-oxazolidin-5-ylmethyl}-acetamide]: the MIC in test [1] was determined as 2 µg/mL (≈ 6.07 µM); with HINF 30063 (HINF 30063, agar dilution), 4 µg/mL (≈ 12.1 µM); in the test with SPNE 9912, 0.5 µg/mL (≈ 1.52 µM).

Consider `COC(=O)NC[C@H]1CN(c2ccc(N3C=CC(=O)CC3)c(F)c2)C(=O)O1` [Example 7, {3-[3-fluoro-4-(4-oxo-3,4-dihydro-2H-pyridin-1-yl)-phenyl]-2-oxo-oxazolidin-5-ylmethyl}-carbamic Acid Methyl Ester], for which the MIC in test [1] was 2 µg/mL (≈ 5.5 µM); with HINF 30063 (HINF 30063, agar dilution), 8 µg/mL (≈ 22 µM); in the test on SPNE 9912, 0.5 µg/mL (≈ 1.38 µM).

For `O=C1C=CN(c2ccc(N3C[C@H](Cn4ccnn4)OC3=O)cc2F)CC1` [Example 16, 1-{2-fluoro-4-[(5R)-2-oxo-5-(1H-1,2,3-triazol-1-ylmethyl)-1,3-oxazolidin-3-yl]phenyl}-2,3-dihydropyridin-4(1H)-one], the MIC in test [1] amounted to 1 µg/mL (≈ 2.8 µM); in the test with HINF 30063 (HINF 30063, agar dilution), 8 µg/mL (≈ 22.4 µM); with SPNE 9912, 0.25 µg/mL (≈ 0.7 µM).

With `CCC(=O)NC[C@H]1CN(c2ccc(N3C=CC(=O)CC3)c(F)c2)C(=O)O1` [Example 4, N-{3-[3-fluoro-4-(4-oxo-3,4-dihydro-2H-pyridin-1-yl)-phenyl]-2-oxo-oxazolidin-5-ylmethyl}-propionamide], the MIC amounted to 1 µg/mL (≈ 2.77 µM) in test [1]; 2 µg/mL (≈ 5.53 µM) in the test with HINF 30063 (HINF 30063, agar dilution); 0.5 µg/mL (≈ 1.38 µM) in the test on SPNE 9912.

Consider `O=C1C=CN(c2ccc(N3C[C@H](CNC(=O)C(F)F)OC3=O)cc2)CC1` [Example 11, 2,2-difluoro-N-{2-oxo-3-[4-(4-oxo-3,4-dihydro-2H-pyridin-1-yl)-phenyl]-oxazolidin-5-ylmethyl}-acetamide], for which the MIC was 2 µg/mL (≈ 5.47 µM) in test [1]; 4 µg/mL (≈ 10.9 µM) in the test on HINF 30063 (HINF 30063, agar dilution); 0.5 µg/mL (≈ 1.37 µM) in the test on SPNE 9912.

With `O=C1C=CN(c2c(F)cc(N3C[C@H](CNC(=O)C(F)F)OC3=O)cc2F)CC1` [Example 13, N-{3-[3,5-difluoro-4-(4-oxo-3,4-dihydro-2H-pyridin-1-yl)-phenyl]-2-oxo-oxazolidin-5-ylmethyl}-2,2-difluoro-acetamide], the MIC in test [1] came out at 2 µg/mL (≈ 4.98 µM); in the test on HINF 30063 (HINF 30063, agar dilution) it was 8 µg/mL (≈ 19.9 µM); in the test with SPNE 9912, 0.25 µg/mL (≈ 0.623 µM).

For `O=C1C=CN(c2c(F)cc(N3C[C@H](CNC(=S)C(F)F)OC3=O)cc2F)CC1` [Example 14, N-{3-[3,5-difluoro-4-(4-oxo-3,4-dihydro-2H-pyridin-1-yl)-phenyl]-2-oxo-oxazolidin-5-ylmethyl}-2,2-difluoro-thioacetamide], the MIC was found to be 0.5 µg/mL (≈ 1.2 µM) in test [1]; 8 µg/mL (≈ 19.2 µM) in the test with HINF 30063 (HINF 30063, agar dilution); 0.25 µg/mL (≈ 0.599 µM) with SPNE 9912.

For `O=C1C=CN(c2ccc(N3C[C@H](CNC(=O)C(Cl)Cl)OC3=O)cc2)CC1` [Example 8, 2,2-dichloro-N-{2-oxo-3-[4-(4-oxo-3,4-dihydro-2H-pyridin-1-yl)-phenyl]-oxazolidin-5-ylmethyl}-acetamide], the MIC worked out at 2 µg/mL (≈ 5.02 µM) in test [1]; 2 µg/mL (≈ 5.02 µM) in the test with HINF 30063 (HINF 30063, agar dilution); 0.25 µg/mL (≈ 0.628 µM) in the test on SPNE 9912.

As for `CCC(=O)NC[C@H]1CN(c2ccc(N3C=CC(=O)CC3)cc2)C(=O)O1` [Example 12, N-{2-oxo-3-[4-(4-oxo-3,4-dihydro-2H-pyridin-1-yl)-phenyl]-oxazolidin-5-ylmethyl}-propionamide], the MIC was 4 µg/mL (≈ 11.6 µM) in test [1]; 4 µg/mL (≈ 11.6 µM) in the test on HINF 30063 (HINF 30063, agar dilution); 0.5 µg/mL (≈ 1.46 µM) in the test on SPNE 9912.

With `O=C1C=CN(c2ccc(N3C[C@H](CNC(=S)C(F)F)OC3=O)cc2)CC1` [Example 10, 2,2-difluoro-N-{2-oxo-3-[4-(4-oxo-3,4-dihydro-2H-pyridin-1-yl)-phenyl]-oxazolidin-5-ylmethyl}-thioacetamide], the MIC worked out at 1 µg/mL (≈ 2.62 µM) in test [1]; 4 µg/mL (≈ 10.5 µM) in the test on HINF 30063 (HINF 30063, agar dilution); 0.25 µg/mL (≈ 0.655 µM) in the test with SPNE 9912.
